In PubChem BioAssay (NCI):
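These data come from cells grown in 96-well plates and exposed to compound for 48 hours at five concentrations. At the GI50, growth is halved. At the TGI there is no net growth.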

Key:
Assay in all cases: growth of human tumour cells (NCI), 48 h
PC-3 prostate = test system: PC-3 prostate
HOP-92 NSCLC = test system: HOP-92 NSCLC
OVCAR-3 ovarian = test system: OVCAR-3 ovarian
UACC-62 melanoma = test system: UACC-62 melanoma
T-47D breast = test system: T-47D breast
HCC-2998 colon = test system: HCC-2998 colon
HL-60(TB) leukemia = test system: HL-60(TB) leukemia
SW-620 colon = test system: SW-620 colon
NCI/ADR-RES ovarian = test system: NCI/ADR-RES ovarian
NCI-H522 lung = test system: NCI-H522 lung
NCI-H23 lung = test system: NCI-H23 lung
OVCAR-5 ovarian = test system: OVCAR-5 ovarian
IGROV1 ovarian = test system: IGROV1 ovarian
SK-MEL-28 melanoma = test system: SK-MEL-28 melanoma
SK-OV-3 ovarian = test system: SK-OV-3 ovarian
DU-145 prostate = test system: DU-145 prostate
ACHN renal = test system: ACHN renal
SK-MEL-2 melanoma = test system: SK-MEL-2 melanoma
MDA-MB-231 breast = test system: MDA-MB-231 breast
SK-MEL-5 melanoma = test system: SK-MEL-5 melanoma
MDA-MB-435 = test system: MDA-MB-435
HT29 colon = test system: HT29 colon
CAKI-1 renal = test system: CAKI-1 renal
UO-31 renal = test system: UO-31 renal
RPMI-8226 leukemia = test system: RPMI-8226 leukemia
SN12C renal = test system: SN12C renal
TK-10 renal = test system: TK-10 renal
HS 578T breast = test system: HS 578T breast
OVCAR-4 ovarian = test system: OVCAR-4 ovarian
U251 CNS = test system: U251 CNS
MOLT-4 leukemia = test system: MOLT-4 leukemia
M14 melanoma = test system: M14 melanoma
UACC-257 melanoma = test system: UACC-257 melanoma
KM12 colon = test system: KM12 colon
MALME-3M melanoma = test system: MALME-3M melanoma
NCI-H226 lung = test system: NCI-H226 lung
SF-268 CNS = test system: SF-268 CNS
EKVX NSCLC = test system: EKVX NSCLC
SNB-75 CNS = test system: SNB-75 CNS
CCRF-CEM leukemia = test system: CCRF-CEM leukemia
SNB-19 CNS = test system: SNB-19 CNS
HCT-116 colon = test system: HCT-116 colon
A498 renal = test system: A498 renal
HOP-62 NSCLC = test system: HOP-62 NSCLC
A549 NSCLC = test system: A549 NSCLC
OVCAR-8 ovarian = test system: OVCAR-8 ovarian
COLO 205 colon = test system: COLO 205 colon
LOX IMVI melanoma = test system: LOX IMVI melanoma
SF-295 CNS = test system: SF-295 CNS
MDA-MB-468 breast = test system: MDA-MB-468 breast
RXF 393 renal = test system: RXF 393 renal
BT-549 breast = test system: BT-549 breast
NCI-H460 lung = test system: NCI-H460 lung
MCF7 breast = test system: MCF7 breast
SF-539 CNS = test system: SF-539 CNS
SR leukemia = test system: SR leukemia
786-0 renal = test system: 786-0 renal
HCT-15 colon = test system: HCT-15 colon
K-562 leukemia = test system: K-562 leukemia

Cn1ncc2c(N)nc(Oc3ccccc3-c3ccccc3)nc21
GI50 (PC-3 prostate): 13.3 µM
TGI (PC-3 prostate): > 100 µM
GI50 (HOP-92 NSCLC): 14.3 µM
TGI (HOP-92 NSCLC): > 100 µM
GI50 (OVCAR-3 ovarian): 6.61 µM
TGI (OVCAR-3 ovarian): > 100 µM
GI50 (UACC-62 melanoma): 4.1 µM
TGI (UACC-62 melanoma): 36.7 µM
GI50 (T-47D breast): 4.91 µM
TGI (T-47D breast): > 100 µM
GI50 (HCC-2998 colon): 10.2 µM
TGI (HCC-2998 colon): > 100 µM
GI50 (HL-60(TB) leukemia): 3.93 µM
TGI (HL-60(TB) leukemia): 30.5 µM
GI50 (SW-620 colon): 3.89 µM
TGI (SW-620 colon): > 100 µM
GI50 (NCI/ADR-RES ovarian): 3.26 µM
TGI (NCI/ADR-RES ovarian): 17.5 µM
GI50 (NCI-H522 lung): 2.21 µM
TGI (NCI-H522 lung): 7.03 µM
GI50 (NCI-H23 lung): 8.54 µM
TGI (NCI-H23 lung): > 100 µM
GI50 (OVCAR-5 ovarian): 6.5 µM
TGI (OVCAR-5 ovarian): > 100 µM
GI50 (IGROV1 ovarian): 8.02 µM
TGI (IGROV1 ovarian): > 100 µM
GI50 (SK-MEL-28 melanoma): 8.4 µM
TGI (SK-MEL-28 melanoma): > 100 µM
GI50 (SK-OV-3 ovarian): 30.3 µM
TGI (SK-OV-3 ovarian): > 100 µM
GI50 (DU-145 prostate): 32.3 µM
TGI (DU-145 prostate): > 100 µM
GI50 (ACHN renal): 20.6 µM
TGI (ACHN renal): > 100 µM
GI50 (SK-MEL-2 melanoma): 4.36 µM
TGI (SK-MEL-2 melanoma): > 100 µM
GI50 (MDA-MB-231 breast): 4.54 µM
TGI (MDA-MB-231 breast): > 100 µM
GI50 (SK-MEL-5 melanoma): 3.64 µM
TGI (SK-MEL-5 melanoma): 18.2 µM
GI50 (MDA-MB-435): 1.99 µM
TGI (MDA-MB-435): 5.44 µM
GI50 (HT29 colon): 3.4 µM
TGI (HT29 colon): 34.6 µM
GI50 (CAKI-1 renal): 7.72 µM
TGI (CAKI-1 renal): > 100 µM
GI50 (UO-31 renal): 11.4 µM
TGI (UO-31 renal): > 100 µM
GI50 (RPMI-8226 leukemia): 3.94 µM
TGI (RPMI-8226 leukemia): 27.4 µM
GI50 (SN12C renal): 7.43 µM
TGI (SN12C renal): > 100 µM
GI50 (TK-10 renal): 19.7 µM
TGI (TK-10 renal): > 100 µM
GI50 (HS 578T breast): 5.73 µM
TGI (HS 578T breast): 41.4 µM
GI50 (OVCAR-4 ovarian): 19.3 µM
TGI (OVCAR-4 ovarian): > 100 µM
GI50 (U251 CNS): 4.77 µM
TGI (U251 CNS): > 100 µM
GI50 (MOLT-4 leukemia): 4.22 µM
TGI (MOLT-4 leukemia): 34.7 µM
GI50 (M14 melanoma): 4.54 µM
TGI (M14 melanoma): > 100 µM
GI50 (UACC-257 melanoma): 8.36 µM
TGI (UACC-257 melanoma): > 100 µM
GI50 (KM12 colon): 4.82 µM
TGI (KM12 colon): > 100 µM
GI50 (MALME-3M melanoma): 4.3 µM
TGI (MALME-3M melanoma): > 100 µM
GI50 (NCI-H226 lung): 6.65 µM
TGI (NCI-H226 lung): 97.2 µM
GI50 (SF-268 CNS): 23.7 µM
TGI (SF-268 CNS): > 100 µM
GI50 (EKVX NSCLC): 9.41 µM
TGI (EKVX NSCLC): > 100 µM
GI50 (SNB-75 CNS): 3.75 µM
TGI (SNB-75 CNS): 34.2 µM
GI50 (CCRF-CEM leukemia): 3.73 µM
TGI (CCRF-CEM leukemia): 46.3 µM
GI50 (SNB-19 CNS): 29.3 µM
TGI (SNB-19 CNS): > 100 µM
GI50 (HCT-116 colon): 4.53 µM
TGI (HCT-116 colon): > 100 µM
GI50 (A498 renal): 62.2 µM
TGI (A498 renal): > 100 µM
GI50 (HOP-62 NSCLC): 32 µM
TGI (HOP-62 NSCLC): > 100 µM
GI50 (A549 NSCLC): 6.74 µM
TGI (A549 NSCLC): > 100 µM
GI50 (OVCAR-8 ovarian): 13.1 µM
TGI (OVCAR-8 ovarian): 65.1 µM
GI50 (COLO 205 colon): 7.05 µM
TGI (COLO 205 colon): > 100 µM
GI50 (LOX IMVI melanoma): 7.01 µM
TGI (LOX IMVI melanoma): > 100 µM
GI50 (SF-295 CNS): 6.11 µM
TGI (SF-295 CNS): > 100 µM
GI50 (MDA-MB-468 breast): 1.74 µM
TGI (MDA-MB-468 breast): 4.92 µM
GI50 (RXF 393 renal): 10.3 µM
TGI (RXF 393 renal): 47 µM
GI50 (BT-549 breast): 4.28 µM
TGI (BT-549 breast): 37.6 µM
GI50 (NCI-H460 lung): 3.87 µM
TGI (NCI-H460 lung): > 100 µM
GI50 (MCF7 breast): 3.66 µM
TGI (MCF7 breast): > 100 µM
GI50 (SF-539 CNS): 7.68 µM
TGI (SF-539 CNS): > 100 µM
GI50 (SR leukemia): 2.91 µM
TGI (SR leukemia): > 100 µM
GI50 (786-0 renal): 26.4 µM
TGI (786-0 renal): > 100 µM
GI50 (HCT-15 colon): 3.79 µM
TGI (HCT-15 colon): > 100 µM
GI50 (K-562 leukemia): 3.44 µM
TGI (K-562 leukemia): > 100 µM
